Structures are written as SMILES.

In one assay the target is T1, HiBiT-BRM (Homo sapiens, UniProt P51531).
T1 construct: expressed in transfected cells
As to the kind of experiment: HiBiT-BRM cell-based degradation assay (Nano-Glo HiBiT Lytic Detection). Conditions: HeLa cells expressing HiBiT-BRM, 24 h; for DC50: read-out: BRM HiBit Degradation IC50. In outline:
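HeLa cells stably expressing HiBiT-tagged BRM were treated for 24 h, then lysed with LgBiT-containing Nano-Glo reagent and luminescence read. % degradation scaled between DMSO (high control) and 2 μM reference BRM/BRG1 degrader (low control).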

The target in a further assay is T2, HiBit-BRG1 (Homo sapiens, UniProt P51532).
T2 construct: expressed in transfected cells
T2 sequence (P51532 whole entry): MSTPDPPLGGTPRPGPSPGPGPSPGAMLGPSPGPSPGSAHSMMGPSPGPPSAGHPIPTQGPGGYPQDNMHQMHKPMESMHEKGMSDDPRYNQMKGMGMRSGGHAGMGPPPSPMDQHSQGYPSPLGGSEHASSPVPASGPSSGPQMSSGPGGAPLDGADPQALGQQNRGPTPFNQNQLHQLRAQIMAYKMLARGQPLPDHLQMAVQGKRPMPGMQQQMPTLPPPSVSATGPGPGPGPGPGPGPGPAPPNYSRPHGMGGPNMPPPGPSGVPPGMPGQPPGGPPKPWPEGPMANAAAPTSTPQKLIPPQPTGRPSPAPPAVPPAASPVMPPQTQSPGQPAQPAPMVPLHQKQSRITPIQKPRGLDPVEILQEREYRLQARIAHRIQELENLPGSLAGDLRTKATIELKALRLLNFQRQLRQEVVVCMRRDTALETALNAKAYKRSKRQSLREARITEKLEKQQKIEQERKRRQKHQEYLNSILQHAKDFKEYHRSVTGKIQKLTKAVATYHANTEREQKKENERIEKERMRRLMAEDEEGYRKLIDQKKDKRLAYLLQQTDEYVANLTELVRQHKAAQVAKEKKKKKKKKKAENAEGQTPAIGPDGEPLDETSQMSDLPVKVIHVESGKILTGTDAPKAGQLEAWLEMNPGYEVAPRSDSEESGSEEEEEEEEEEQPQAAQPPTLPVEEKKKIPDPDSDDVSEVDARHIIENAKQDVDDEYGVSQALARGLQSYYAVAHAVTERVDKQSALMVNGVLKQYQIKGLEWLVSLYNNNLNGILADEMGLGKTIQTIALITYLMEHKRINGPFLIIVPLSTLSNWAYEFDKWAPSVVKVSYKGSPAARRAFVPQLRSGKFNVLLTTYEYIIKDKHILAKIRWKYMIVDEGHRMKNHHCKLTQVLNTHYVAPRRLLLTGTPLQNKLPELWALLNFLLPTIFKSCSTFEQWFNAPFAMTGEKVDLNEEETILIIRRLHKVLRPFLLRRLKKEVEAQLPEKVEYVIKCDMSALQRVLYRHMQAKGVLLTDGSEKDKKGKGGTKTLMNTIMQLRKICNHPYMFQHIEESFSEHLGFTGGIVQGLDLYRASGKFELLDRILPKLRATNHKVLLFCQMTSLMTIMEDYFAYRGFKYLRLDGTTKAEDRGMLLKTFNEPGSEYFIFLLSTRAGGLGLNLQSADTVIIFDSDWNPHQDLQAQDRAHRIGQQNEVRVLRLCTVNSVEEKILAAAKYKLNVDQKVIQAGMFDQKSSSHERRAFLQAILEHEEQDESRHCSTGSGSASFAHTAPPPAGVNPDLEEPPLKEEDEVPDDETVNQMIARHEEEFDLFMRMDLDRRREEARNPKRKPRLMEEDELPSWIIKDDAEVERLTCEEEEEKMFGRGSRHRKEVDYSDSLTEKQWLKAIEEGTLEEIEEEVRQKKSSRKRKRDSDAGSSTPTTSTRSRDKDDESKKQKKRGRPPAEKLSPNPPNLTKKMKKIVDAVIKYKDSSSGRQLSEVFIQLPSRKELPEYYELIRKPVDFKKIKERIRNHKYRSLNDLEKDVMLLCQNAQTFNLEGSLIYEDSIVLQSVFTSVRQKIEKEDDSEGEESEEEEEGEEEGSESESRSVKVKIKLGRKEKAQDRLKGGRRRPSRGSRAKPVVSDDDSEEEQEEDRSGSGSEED
As to the kind of experiment: HiBit-BRG1 cell-based degradation assay (Nano-Glo HiBiT Lytic Detection). The following applies: HeLa cells expressing HiBit-BRG1 and LgBit, 24 h; for DC50: read-out: BRG1 HiBit Degradation IC50; for Dmax: read-out: BRG1 HiBit Degradation Maximum (%). In outline:
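HeLa cells stably expressing HiBiT-BRG1 plus LgBit, 5000/well, treated 24 h, then lysed with Nano-Glo HiBiT lytic reagent and luminescence read. % degradation normalised between DMSO (high control) and 2 μM reference BRM/BRG1 degrader (low control).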
On the technique in general: The HiBiT peptide binds its large partner to form an active luciferase.

T1 sequence (P51531 whole entry): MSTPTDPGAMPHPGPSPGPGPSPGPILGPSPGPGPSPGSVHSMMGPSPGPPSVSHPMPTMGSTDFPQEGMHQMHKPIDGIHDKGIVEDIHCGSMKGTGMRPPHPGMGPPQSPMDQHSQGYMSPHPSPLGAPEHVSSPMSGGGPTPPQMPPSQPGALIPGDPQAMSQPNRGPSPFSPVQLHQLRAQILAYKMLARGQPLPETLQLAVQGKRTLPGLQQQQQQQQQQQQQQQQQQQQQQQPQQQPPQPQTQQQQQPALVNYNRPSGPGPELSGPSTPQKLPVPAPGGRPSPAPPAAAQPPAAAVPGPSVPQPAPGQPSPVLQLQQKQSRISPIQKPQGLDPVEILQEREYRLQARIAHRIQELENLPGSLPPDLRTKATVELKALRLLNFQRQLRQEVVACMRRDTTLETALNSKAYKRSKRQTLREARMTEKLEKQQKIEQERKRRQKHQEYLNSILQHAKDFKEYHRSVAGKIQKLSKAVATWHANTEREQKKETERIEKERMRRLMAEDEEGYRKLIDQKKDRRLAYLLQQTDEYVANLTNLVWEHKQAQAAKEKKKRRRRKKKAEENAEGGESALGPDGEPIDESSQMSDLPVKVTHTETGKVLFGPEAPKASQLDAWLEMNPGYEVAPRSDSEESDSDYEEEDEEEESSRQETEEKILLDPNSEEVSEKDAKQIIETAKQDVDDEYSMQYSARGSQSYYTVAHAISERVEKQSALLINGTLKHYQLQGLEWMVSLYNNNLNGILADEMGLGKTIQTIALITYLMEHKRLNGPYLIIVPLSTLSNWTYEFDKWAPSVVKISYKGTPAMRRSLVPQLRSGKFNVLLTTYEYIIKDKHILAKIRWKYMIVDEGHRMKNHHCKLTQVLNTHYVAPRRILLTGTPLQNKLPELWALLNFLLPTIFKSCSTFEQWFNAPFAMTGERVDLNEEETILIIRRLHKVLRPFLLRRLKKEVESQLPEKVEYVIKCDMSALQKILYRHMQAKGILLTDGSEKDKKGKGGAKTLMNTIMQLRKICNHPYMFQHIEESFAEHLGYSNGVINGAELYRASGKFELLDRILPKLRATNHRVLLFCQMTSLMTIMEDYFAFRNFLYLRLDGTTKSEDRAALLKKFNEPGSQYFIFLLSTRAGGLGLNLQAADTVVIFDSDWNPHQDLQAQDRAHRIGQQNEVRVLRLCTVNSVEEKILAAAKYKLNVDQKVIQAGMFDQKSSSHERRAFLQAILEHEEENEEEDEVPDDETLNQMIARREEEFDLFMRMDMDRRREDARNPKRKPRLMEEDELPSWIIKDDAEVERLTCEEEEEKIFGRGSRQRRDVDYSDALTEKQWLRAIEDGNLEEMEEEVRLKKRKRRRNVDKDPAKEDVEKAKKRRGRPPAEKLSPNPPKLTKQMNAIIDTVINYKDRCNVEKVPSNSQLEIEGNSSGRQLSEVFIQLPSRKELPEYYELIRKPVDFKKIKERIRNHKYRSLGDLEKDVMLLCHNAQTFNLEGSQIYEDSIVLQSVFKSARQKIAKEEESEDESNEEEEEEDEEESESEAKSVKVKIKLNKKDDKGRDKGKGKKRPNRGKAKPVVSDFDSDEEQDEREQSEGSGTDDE

Regarding `Nc1nnc(-c2ccccc2O)cc1OCCc1ccc(CNC(=O)C2CCN(CCOc3ccc4c(c3)C(=O)N(C3CCC(=O)NC3=O)C4=O)CC2)cc1` (stereo not shown) [Compound 19, N-(4-(2-((3-amino-6-(2-hydroxyphenyl)pyridazin-4-yl)oxy)ethyl)benzyl)-1-(2-((2-(2,6-dioxopiperidin-3-yl)-1,3-dioxoisoindolin-5-yl)oxy)ethyl)piperidine-4-carboxamide], at HiBiT-BRM, the “BRM HiBit Degradation Maximum (%)” value was “C (“C” indicates maximum degradation <50%)” and the DC50 is over 1000 nM. Moreover, at HiBit-BRG1, the DC50 is over 1000 nM and the Dmax was under 50%.

Consider `Cc1ncsc1-c1ccc([C@H](C)NC(=O)[C@@H]2C[C@@H](O)CN2C(=O)[C@@H](c2cc(OCCN3CC4(C3)CN(CCC(=O)NCc3ccc(CCOc5cc(-c6ccccc6O)nnc5N)cc3)C4)no2)C(C)C)cc1` [Compound 192, (2S,4R)-1-[(2R)-2-[3-(2-[6-[2-([[4-(2-[[3-amino-6-(2-hydroxyphenyl)pyridazin-4-yl]oxy]ethyl)phenyl]methyl]carbamoyl)ethyl]-2,6-diazaspiro[3.3]heptan-2-yl]ethoxy)-1,2-oxazol-5-yl]-3-methylbutanoyl]-4-hydroxy-N-[(1S)-1-[4-(4-methyl-1,3-thiazol-5-yl)phenyl]ethyl]pyrrolidine-2-carboxamide], for which, at HiBiT-BRM, the “BRM HiBit Degradation Maximum (%)” value is “A (“A” indicates maximum degradation ≥75%)” and the DC50 was over 100 nM. In addition, at HiBit-BRG1, the DC50 was over 1000 nM and the Dmax was over 50%.

Consider `Cc1ncsc1-c1ccc(CNC(=O)[C@@H]2C[C@@H](O)CN2C(=O)[C@@H](NC(=O)CN2CCC3(CCN(CCC(=O)NCc4ccc(CCOc5cc(-c6ccccc6O)nnc5N)cc4)CC3)CC2)C(C)(C)C)cc1` [Compound 266, (2S,4R)-1-((S)-2-(2-(9-(3-((4-(2-((3-amino-6-(2-hydroxyphenyl)pyridazin-4-yl)oxy)ethyl)benzyl)amino)-3-oxopropyl)-3,9-diazaspiro[5.5]undecan-3-yl)acetamido)-3,3-dimethylbutanoyl)-4-hydroxy-N-(4-(4-methylthiazol-5-yl)benzyl)pyrrolidine-2-carboxamide], for which, at HiBiT-BRM, the “BRM HiBit Degradation Maximum (%)” value is “A (“A” indicates maximum degradation ≥75%)” and the DC50 was over 1000 nM. Moreover, at HiBit-BRG1, the DC50 is over 1000 nM and the Dmax is under 50%.

In the case of `Cc1ncsc1-c1ccc([C@H](C)NC(=O)[C@@H]2C[C@@H](O)CN2C(=O)[C@@H](c2cc(OCCN3[C@@H]4CC[C@H]3CN(C(=O)c3ccc(CCOc5cc(-c6ccccc6O)nnc5N)cc3)C4)no2)C(C)C)cc1` [Compound 221, (2S,4R)-1-[(2R)-2-[3-(2-[3-[4-(2-[[3-amino-6-(2-hydroxyphenyl)pyridazin-4-yl]oxy]ethyl)benzoyl]-3,8-diazabicyclo[3.2.1]octan-8-yl]ethoxy)-1,2-oxazol-5-yl]-3-methylbutanoyl]-4-hydroxy-N-[(1S)-1-[4-(4-methyl-1,3-thiazol-5-yl)phenyl]ethyl]pyrrolidine-2-carboxamide], at HiBiT-BRM, the “BRM HiBit Degradation Maximum (%)” value is “A (“A” indicates maximum degradation ≥75%)” and the DC50 was over 10 nM. In addition, on HiBit-BRG1, the DC50 is under 10 nM and the Dmax is over 75%.

On to `Cc1ncsc1-c1ccc([C@H](C)NC(=O)[C@@H]2C[C@@H](O)CN2C(=O)[C@@H](NC(=O)CCCCN2CCN(CCC(=O)NCc3ccc(CCOc4cc(-c5ccccc5O)nnc4N)cc3)CC2)C(C)(C)C)cc1` [Compound 262, (2S,4R)-1-((S)-2-(5-(4-(3-((4-(2-((3-amino-6-(2-hydroxyphenyl)pyridazin-4-yl)oxy)ethyl)benzyl)amino)-3-oxopropyl)piperazin-1-yl)pentanamido)-3,3-dimethylbutanoyl)-4-hydroxy-N-((S)-1-(4-(4-methylthiazol-5-yl)phenyl)ethyl)pyrrolidine-2-carboxamide], for which, at HiBiT-BRM, the “BRM HiBit Degradation Maximum (%)” value is “B (“B” indicates maximum degradation ≥50%)” and the DC50 was over 1000 nM. At HiBit-BRG1, the DC50 is over 1000 nM and the Dmax is under 50%.

For `Cc1ncsc1-c1ccc(CNC(=O)[C@@H]2C[C@@H](O)CN2C(=O)[C@@H](NC(=O)CCCCCCCCCCCCCCCC(=O)NCc2ccc(CCNc3cc(-c4ccccc4O)nnc3N)cc2)C(C)(C)C)cc1` [Compound 136, N′-[[4-(2-[[3-amino-6-(2-hydroxyphenyl)pyridazin-4-yl]amino]ethyl)phenyl]methyl]-N-[(2S)-1-[(2S,4R)-4-hydroxy-2-([[4-(4-methyl-1,3-thiazol-5-yl)phenyl]methyl]carbamoyl)pyrrolidin-1-yl]-3,3-dimethyl-1-oxobutan-2-yl]heptadecanediamide], on HiBiT-BRM, the “BRM HiBit Degradation Maximum (%)” value is “B (“B” indicates maximum degradation ≥50%)” and the DC50 was over 100 nM. In addition, at HiBit-BRG1, the DC50 was over 1000 nM and the Dmax is under 50%.

Take `Cc1ncsc1-c1ccc(CNC(=O)[C@@H]2C[C@@H](O)CN2C(=O)[C@@H](NC(=O)CCN2C[C@@H]3CN(C(=O)c4ccc(CCOc5cc(-c6ccccc6O)nnc5N)cc4)C[C@@H]3C2)C(C)(C)C)cc1` [Compound 203, (2S,4R)-1-((2S)-2-(3-(5-(4-(2-((3-amino-6-(2-hydroxyphenyl)pyridazin-4-yl)oxy)ethyl)benzoyl)hexahydropyrrolo[3,4-c]pyrrol-2(1H)-yl)propanamido)-3,3-dimethylbutanoyl)-4-hydroxy-N-(4-(4-methylthiazol-5-yl)benzyl)pyrrolidine-2-carboxamide]: at HiBiT-BRM, the “BRM HiBit Degradation Maximum (%)” value is recorded as “B (“B” indicates maximum degradation ≥50%)” and the DC50 is over 1000 nM. For the same molecule, on HiBit-BRG1, the DC50 is over 1000 nM and the Dmax was under 50%.

With `Nc1nnc(-c2ccccc2O)cc1N1CCN(CCNC(=O)CCCCCCCCNc2ccc3c(c2)C(=O)N(C2CCC(=O)NC2=O)C3=O)CC1` (stereo not shown) [Compound 92], at HiBiT-BRM, the “BRM HiBit Degradation Maximum (%)” value is “C (“C” indicates maximum degradation <50%)” and the DC50 was over 1000 nM. In addition, at HiBit-BRG1, the DC50 is over 1000 nM and the Dmax was under 50%.

For `CN(CCc1ccc(CNCCN2CCN(c3cccc4c3C(=O)N(C3CCC(=O)NC3=O)C4=O)CC2)cc1)c1cc(-c2ccccc2O)nnc1N` (stereo not shown) [Compound 160, 4-(4-(2-((4-(2-((3-amino-6-(2-hydroxyphenyl)pyridazin-4-yl)(methyl)amino)ethyl)benzyl)amino)ethyl)piperazin-1-yl)-2-(2,6-dioxopiperidin-3-yl)isoindoline-1,3-dione diformate], at HiBiT-BRM, the “BRM HiBit Degradation Maximum (%)” value was “B (“B” indicates maximum degradation ≥50%)” and the DC50 is over 1000 nM. Moreover, on HiBit-BRG1, the DC50 was over 1000 nM and the Dmax was over 50%.

Take `Nc1nnc(-c2ccccc2O)cc1OCCc1ccc(CNC(=O)CCNc2cccc3nnn(C4CCC(=O)NC4=O)c(=O)c23)cc1` (stereo not shown) [Compound 111, N-(4-(2-((3-amino-6-(2-hydroxyphenyl)pyridazin-4-yl)oxy)ethyl)benzyl)-3-((3-(2,6-dioxopiperidin-3-yl)-4-oxo-3,4-dihydrobenzo[d][1,2,3]triazin-5-yl)amino)propanamide]: at HiBiT-BRM, the “BRM HiBit Degradation Maximum (%)” value is on record as “C (“C” indicates maximum degradation <50%)” and the DC50 is over 1000 nM. Moreover, at HiBit-BRG1, the DC50 is over 1000 nM and the Dmax is under 50%.

In the case of `CN(CCc1ccc(CNC(=O)CCCCNc2cccc3nnn(C4CCC(=O)NC4=O)c(=O)c23)cc1)c1cc(-c2ccccc2O)nnc1N` (stereo not shown) [Compound 142, N-(4-(2-((3-amino-6-(2-hydroxyphenyl)pyridazin-4-yl)(methyl)amino)ethyl)benzyl)-5-((3-(2,6-dioxopiperidin-3-yl)-4-oxo-3,4-dihydrobenzo[d][1,2,3]triazin-5-yl)amino)pentanamide], on HiBiT-BRM, the “BRM HiBit Degradation Maximum (%)” value is recorded as “C (“C” indicates maximum degradation <50%)” and the DC50 was over 1000 nM. Further, at HiBit-BRG1, the DC50 was over 1000 nM and the Dmax was under 50%.

In the case of `Cc1ncsc1-c1ccc([C@H](C)NC(=O)[C@@H]2C[C@@H](O)CN2C(=O)[C@@H](c2cc(OCCN3CCC(CC(=O)NCc4ccc(CCOc5cc(-c6ccccc6O)nnc5N)cc4)CC3)no2)C(C)C)cc1` [Compound 177, (2S,4R)-1-((R)-2-(3-(2-(4-(2-((4-(2-((3-amino-6-(2-hydroxyphenyl)pyridazin-4-yl)oxy)ethyl)benzyl)amino)-2-oxoethyl)piperidin-1-yl)ethoxy)isoxazol-5-yl)-3-methylbutanoyl)-4-hydroxy-N-((S)-1-(4-(4-methylthiazol-5-yl)phenyl)ethyl)pyrrolidine-2-carboxamide], at HiBiT-BRM, the “BRM HiBit Degradation Maximum (%)” value is on record as “A (“A” indicates maximum degradation ≥75%)” and the DC50 is over 100 nM. In addition, at HiBit-BRG1, the DC50 is over 1000 nM and the Dmax was over 75%.

On to `Cc1ncsc1-c1ccc([C@H](C)NC(=O)[C@@H]2C[C@@H](O)CN2C(=O)[C@@H](c2cc(OCCN3C[C@@H]4[C@H](C3)[C@H]4C(=O)NCc3ccc(CCOc4cc(-c5ccccc5O)nnc4N)cc3)no2)C(C)C)cc1` [Compound 194], for which, at HiBiT-BRM, the “BRM HiBit Degradation Maximum (%)” value is “A (“A” indicates maximum degradation ≥75%)” and the DC50 was over 10 nM. In addition, on HiBit-BRG1, the DC50 is over 100 nM and the Dmax was over 75%.

Values taken from patent US20230150974A1 (Foghorn Therapeutics Inc., priority 2020, published 2023).
